Measurements taken from patent publication US8802597B2, “Herbicidal pyrimidines” (E I du Pont de Nemours and Company, priority 2003, dated 2014).

Key:
Type in all cases: in vivo
[1] = system: duck salad (Heteranthera limosa); experiment: Test B flooded paddy test; conditions: Flood, scale 0 to 100
How it was run: (§1)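 Plants were grown to the 2-leaf stage before treatment, then kept in a greenhouse for 13 to 15 days. Injury was rated visually against untreated controls on a 0 to 100 scale, where 0 is no effect and 100 is complete control.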

[2] = system: barnyardgrass (Echinochloa crus-galli); experiment: Test B flooded paddy test; conditions: Flood, scale 0 to 100
How it was run: as §1

[3] = system: rice (Oryza sativa); experiment: Test B flooded paddy test; conditions: Flood, scale 0 to 100
How it was run: as §1

[4] = system: umbrella sedge (Cyperus difformis); experiment: Test B flooded paddy test; conditions: Flood, scale 0 to 100
How it was run: as §1

[5] = system: giant foxtail (Setaria faberi); experiment: Test A pre/postemergence
How it was run: (§2)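 Visual injury scored 0–100 (0 = no effect, 100 = complete control) against untreated controls after about ten days in the greenhouse. Compounds, formulated in non-phytotoxic solvent plus surfactant, were applied preemergence as a directed soil spray and postemergence at the 1- to 2-leaf stage (2–10 cm).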

[6] = system: barnyardgrass (Echinochloa crus-galli); experiment: Test A pre/postemergence
How it was run: as §2

[7] = system: crabgrass (Digitaria sanguinalis); experiment: Test A pre/postemergence
How it was run: as §2

[8] = system: velvetleaf (Abutilon theophrasti); experiment: Test A pre/postemergence
How it was run: as §2

[9] = system: redroot pigweed (Amaranthus retroflexus); experiment: Test A pre/postemergence
How it was run: as §2

[10] = system: morningglory (Ipomoea spp.); experiment: Test A pre/postemergence
How it was run: as §2

[11] = system: cocklebur (Xanthium strumarium); experiment: Test B pre/postemergence; conditions: for Cocklebur plant response rating: Postemergence; for Plant response rating, Cocklebur: Preemergence
How it was run: (§3)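 Visual rating, 0 (no effect) to 100 (complete control) versus controls, taken 13–15 days after treatment in greenhouse. Compounds formulated in non-phytotoxic solvent plus surfactant; pre: sprayed after seeding; post: plants at 1- to 4-leaf stage, 2–18 cm.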

[12] = system: corn (Zea mays); experiment: Test B pre/postemergence; conditions: for Corn plant response rating: Postemergence; for Plant response rating, Corn: Preemergence
How it was run: as §3

[13] = system: barnyardgrass (Echinochloa crus-galli); experiment: Test B pre/postemergence; conditions: for Barnyardgrass plant response rating: Postemergence; for Plant response rating, Barnyardgrass: Preemergence
How it was run: as §3

[14] = system: crabgrass (Digitaria sanguinalis); experiment: Test B pre/postemergence; conditions: for Crabgrass plant response rating: Postemergence; for Plant response rating, Crabgrass: Preemergence
How it was run: as §3

[15] = system: morningglory (Ipomoea coccinea); experiment: Test B pre/postemergence; conditions: for Morningglory plant response rating: Postemergence; for Plant response rating, Morningglory: Preemergence
How it was run: as §3

[16] = system: velvetleaf (Abutilon theophrasti); experiment: Test B pre/postemergence; conditions: for Velvetleaf plant response rating: Postemergence; for Plant response rating, Velvetleaf: Preemergence
How it was run: as §3

[17] = system: giant foxtail (Setaria faberii); experiment: Test B pre/postemergence; conditions: for Foxtail, Giant plant response rating: Postemergence; for Plant response rating, Foxtail, Giant: Preemergence
How it was run: as §3

[18] = system: pigweed (Amaranthus retroflexus); experiment: Test B pre/postemergence; conditions: for Pigweed plant response rating: Postemergence; for Plant response rating, Pigweed: Preemergence
How it was run: as §3

[19] = system: lambsquarters (Chenopodium album); experiment: Test B pre/postemergence; conditions: for Lambsquarters plant response rating: Postemergence; for Plant response rating, Lambsquarters: Preemergence
How it was run: as §3

[20] = system: Surinam grass (Brachiaria decumbens); experiment: Test B pre/postemergence; conditions: for Surinam Grass plant response rating: Postemergence; for Plant response rating, Surinam Grass: Preemergence
How it was run: as §3

[21] = system: wheat (Triticum aestivum); experiment: Test B pre/postemergence; conditions: for Wheat plant response rating: Postemergence; for Plant response rating, Wheat: Preemergence
How it was run: as §3

[22] = system: wild oat (Avena fatua); experiment: Test B postemergence; conditions: scale 0 to 100 (0 no effect, 100 complete control)
How it was run: as §3

[23] = system: blackgrass (Alopecurus myosuroides); experiment: Test B postemergence; conditions: scale 0 to 100 (0 no effect, 100 complete control)
How it was run: as §3

[24] = Postemergence, 125 g ai/ha, 0 to 100 scale (0 no effect, 100 complete control)
[25] = Postemergence, 500 g ai/ha, 0 to 100 scale (0 no effect, 100 complete control)
[26] = Preemergence, 125 g ai/ha, 0 to 100 scale where 0 is no effect and 100 is complete control, approximately ten days
[27] = Preemergence, 500 g ai/ha, 0 to 100 scale where 0 is no effect and 100 is complete control, approximately ten days
[28] = 62 g ai/ha, scale 0 to 100 (0 no effect, 100 complete control)
[29] = 125 g ai/ha, scale 0 to 100 (0 no effect, 100 complete control)
[30] = 62 g ai/ha, scale 0 to 100, 0 no effect, 100 complete control

With `COC(=O)c1nc(-c2ccc(F)cc2)nc(N)c1Br` [Compound 92] the “Plant response rating, Ducksalad” value ([1]; 125 g ai/ha) was 80, the “Plant response rating, Ducksalad” value ([1]; 500 g ai/ha) was 90 and the “Plant response rating, Barnyardgrass” value ([2]; 125 g ai/ha) was 0. For the same molecule, the “Plant response rating, Barnyardgrass” value ([2]; 500 g ai/ha) was 0, the “Plant response rating, Rice” value ([3]; 125 g ai/ha) was 0 and the “Plant response rating, Rice” value ([3]; 500 g ai/ha) was 0. The “Plant response rating, Sedge, Umbrella” value ([4]; 125 g ai/ha) was 80, the “Plant response rating, Sedge, Umbrella” value ([4]; 500 g ai/ha) was 90 and the “Plant response rating, Foxtail, Giant” value [5, 24] was 0. The “Plant response rating, Foxtail, Giant” value [5, 25] was 0, the “Plant response rating, Foxtail, Giant” value [5, 26] was 0 and the “Plant response rating, Foxtail, Giant” value [5, 27] was 0. The “Plant response rating, Barnyardgrass” value [6, 24] was 0, the “Plant response rating, Barnyardgrass” value [6, 25] was 0 and the “Plant response rating, Barnyardgrass” value [6, 26] was 0. The “Plant response rating, Barnyardgrass” value [6, 27] was 0, the “Plant response rating, Crabgrass” value [7, 24] was 0 and the “Plant response rating, Crabgrass” value [7, 25] was 5. For the same molecule, the “Plant response rating, Crabgrass” value [7, 26] was 0, the “Plant response rating, Crabgrass” value [7, 27] was 0 and the “Plant response rating, Velvetleaf” value [8, 24] was 45. For the same molecule, the “Plant response rating, Velvetleaf” value [8, 25] was 70, the “Plant response rating, Velvetleaf” value [8, 26] was 10 and the “Plant response rating, Velvetleaf” value [8, 27] was 45. For the same molecule, the “Plant response rating, Pigweed” value [9, 24] was 35, the “Plant response rating, Pigweed” value [9, 25] was 70 and the “Plant response rating, Pigweed” value [9, 26] was 15. For the same molecule, the “Plant response rating, Pigweed” value [9, 27] was 45, the “Plant response rating, Morningglory” value [10, 24] was 45 and the “Plant response rating, Morningglory” value [10, 25] was 75. For the same molecule, the “Plant response rating, Morningglory” value [10, 26] was 0, the “Plant response rating, Morningglory” value [10, 27] was 0 and the “Cocklebur plant response rating” value [11, 28] was 60. For the same molecule, the “Cocklebur plant response rating” value [11, 29] was 80, the “Plant response rating, Cocklebur” value [11, 30] was 40 and the “Plant response rating, Cocklebur” value [11, 29] was 50. The “Corn plant response rating” value [12, 28] was 0, the “Corn plant response rating” value [12, 29] was 0 and the “Plant response rating, Corn” value [12, 30] was 0. The “Plant response rating, Corn” value [12, 29] was 0, the “Barnyardgrass plant response rating” value [13, 28] was 10 and the “Barnyardgrass plant response rating” value [13, 29] was 10. The “Plant response rating, Barnyardgrass” value [13, 30] was 10, the “Plant response rating, Barnyardgrass” value [13, 29] was 30 and the “Crabgrass plant response rating” value [14, 28] was 0. The “Crabgrass plant response rating” value [14, 29] was 20, the “Plant response rating, Crabgrass” value [14, 30] was 0 and the “Plant response rating, Crabgrass” value [14, 29] was 10. The “Morningglory plant response rating” value [15, 28] was 50, the “Morningglory plant response rating” value [15, 29] was 60 and the “Plant response rating, Morningglory” value [15, 30] was 0. The “Plant response rating, Morningglory” value [15, 29] was 0, the “Velvetleaf plant response rating” value [16, 28] was 50 and the “Velvetleaf plant response rating” value [16, 29] was 60. For the same molecule, the “Plant response rating, Velvetleaf” value [16, 30] was 50, the “Plant response rating, Velvetleaf” value [16, 29] was 70 and the “Foxtail, Giant plant response rating” value [17, 28] was 20. The “Foxtail, Giant plant response rating” value [17, 29] was 30, the “Plant response rating, Foxtail, Giant” value [17, 30] was 0 and the “Plant response rating, Foxtail, Giant” value [17, 29] was 10. For the same molecule, the “Pigweed plant response rating” value [18, 28] was 70, the “Pigweed plant response rating” value [18, 29] was 80 and the “Plant response rating, Pigweed” value [18, 30] was 40. For the same molecule, the “Plant response rating, Pigweed” value [18, 29] was 80, the “Lambsquarters plant response rating” value [19, 28] was 90 and the “Lambsquarters plant response rating” value [19, 29] was 90. The “Plant response rating, Lambsquarters” value [19, 30] was 50, the “Plant response rating, Lambsquarters” value [19, 29] was 80 and the “Surinam Grass plant response rating” value [20, 28] was 0. For the same molecule, the “Surinam Grass plant response rating” value [20, 29] was 10, the “Plant response rating, Surinam Grass” value [20, 30] was 0 and the “Plant response rating, Surinam Grass” value [20, 29] was 0. The “Wheat plant response rating” value [21, 28] was 0, the “Wheat plant response rating” value [21, 29] was 0 and the “Plant response rating, Wheat” value [21, 30] was 0. For the same molecule, the “Plant response rating, Wheat” value [21, 29] was 30, the “Oat, Wild plant response rating” value ([22]; 62 g ai/ha) was 0 and the “Oat, Wild plant response rating” value ([22]; 125 g ai/ha) was 0. The “Blackgrass plant response rating” value ([23]; 62 g ai/ha) was 20 and the “Blackgrass plant response rating” value ([23]; 125 g ai/ha) was 20.
